Test results from the supplement of paper PMC10307832.

Compound: C1COCCN1CC2=CC(=O)C(=CO2)OCCCCCSC3=C4C=CC(=CC4=NC=C3)C(F)(F)F [EHT 1864]
Assay: relative viability (nuclei count vs DMSO), 5 days (fraction); higher = more cells survive
Method in brief: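 Only plates meeting two conditions passed: control CV below 25% and at least one doubling. Lung cancer cell lines, kept overnight at 37 °C in 1536-well plates, were pinned with five library-drug doses (not always all listed) √10 apart on vehicle-anchored plates and grown 5 days without medium change. A one-step fix, permeabilisation and Hoechst stain preceded 4× imaging and MetaXpress nuclear counting. Viability equals treated-well nuclei divided by vehicle-well nuclei, as the median over plates.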

Row | Cell Line | relative viability (0.04 µM) | relative viability (0.4 µM) | relative viability (1.265 µM) | relative viability (4 µM) | relative viability (0.1265 µM)
1 | HOP-62 | 1.05 | 1 | 1.04 | 1.07 | 
2 | NCI-H1915 | 0.964 | 1.01 | 0.98 | 0.92 | 
3 | NCI-H3122 | 0.99 | 0.994 | 0.999 | 0.945 | 0.98
4 | NCI-H1651 | 0.944 | 0.918 | 0.949 | 0.98 | 0.958
5 | EBC-1 | 0.942 | 0.961 | 0.931 | 0.924 | 0.865
6 | NCI-H838 | 0.915 | 0.99 | 1.01 | 1 | 0.851
7 | NCI-H596 | 0.947 | 1.02 | 0.929 | 0.991 | 0.829
8 | SK-LU-1 | 1.07 | 1.01 | 0.993 | 0.939 | 0.93
9 | NCI-H441 | 1.03 | 0.941 | 1.12 | 1.17 | 0.747
10 | NCI-H650 | 0.894 | 0.968 | 1.01 | 1.03 | 0.846
11 | NCI-H1793 | 0.729 | 0.929 | 0.928 | 0.963 | 0.781
12 | NCI-H1792 | 0.906 | 0.723 | 0.988 | 1 | 
13 | NCI-H1355 | 0.949 | 0.965 | 0.984 | 0.987 | 0.732
14 | SW 1573 | 1.03 | 1.01 | 0.931 | 0.902 | 0.817
15 | A549 | 0.88 | 0.921 | 0.948 | 0.883 | 0.937
16 | NCI-H2347 | 1.07 | 1.01 | 0.966 | 1.03 | 0.75
17 | LCLC-97TM1 | 1.01 | 1.01 | 0.881 | 0.903 | 0.762
18 | EMC-BAC-2 | 1.02 | 1.04 | 0.993 | 0.971 | 0.896
19 | NCI-H1975 | 0.886 | 0.887 | 0.841 | 0.895 | 0.954

Row | Cell Line | relative viability (0.04 µM) | relative viability (0.4 µM) | relative viability (1.265 µM) | relative viability (4 µM) | relative viability (0.1265 µM)
20 | BEN | 0.864 | 1.05 | 0.871 | 0.967 | 0.812
21 | NCI-H1703 | 0.929 | 0.939 | 0.776 | 0.657 | 0.707
22 | NCI-H23 | 0.909 | 0.912 | 1.02 | 1.03 | 0.696
23 | NCI-H520 | 0.885 | 0.889 | 1.04 | 1.02 | 0.889
24 | CAL-12T | 1.02 | 0.991 | 0.963 | 0.887 | 0.902
25 | EPLC-272H | 1.04 | 0.926 | 1.04 | 1.03 | 0.952
26 | LCLC-103H | 0.987 | 1.01 | 1.12 | 1.02 | 0.903
27 | NCI-H2405 | 1.07 | 0.994 | 0.821 | 0.994 | 1
28 | HCC-15 | 1.03 | 0.976 | 0.941 | 1 | 
29 | PC-3 [JPC-3] | 1.1 | 1.02 | 1.05 | 0.953 | 0.908
30 | NCI-H2170 | 0.904 | 0.996 | 1.06 | 1.01 | 0.889
31 | HARA | 0.962 | 1.1 | 1.14 | 1.05 | 0.782
32 | NCI-H1563 | 0.992 | 0.959 | 0.896 | 0.882 | 0.887
33 | NCI-H2126 | 0.983 | 0.986 | 0.985 | 0.999 | 0.914
34 | LXF-289 | 0.961 | 0.95 | 0.961 | 0.886 | 0.932
35 | NCI-H460 | 1.01 | 0.966 | 0.965 | 0.857 | 0.921
36 | NCI-H1395 | 0.933 | 1.01 | 0.86 | 0.861 | 0.752
37 | NCI-H358 | 0.888 | 1.06 | 0.939 | 0.933 | 0.834
38 | NCI-H2009 | 0.971 | 1.03 | 0.906 | 0.877 | 0.945
